The test system of data set [1] is open-angle glaucoma, intraocular pressure. The data set can be described thus: Clinical study of mean intraocular pressure (IOP) in patients diagnosed as having open-angle glaucoma. The format is in vivo, patients (human). The conditions noted are these: 12 patients. From the text: The present invention provides an ocular therapeutic system for administering a therapeutically effective amount of a beta-adrenergic blocking drug, and a therapeutically effective amount of a parasympathomimetic drug concurrently from a single ocular dosage form that can lead to synergestic clinical results. The clinical study that follows presents the results obtained by the simultaneous administration to the eye of a beta-adrenergic blocking drug and a parasympathomimetic drug to the eyes of patients.
In a clinical study using 12 patients diagnosed as having open-angle glaucoma, the mean intraocular pressures, IOP's, were measured with each patient under the following therapies: (a) S-(-)-1-(tert-butylamino)-3-[(4-morpholino-1,2,5-thiadiazol-3-yl)oxy-2-propanol maleate, timolol maleate, 0.25% ophthalmic solution instilled as drop alone; (b) timolol maleate, 0.50% ophthalmic solution instilled as drop alone; (c) (3s-cis)-3-ethyldihydro-4-[(1-methyl-1H-imidazol-5-yl) methyl]-2(3H)-furanone, pilocarpine, administered at a rate of 40 micrograms per hour from an ocular therapeutic system placed in the conjunctival sac; (d) therapy comprising 0.25 timolol maleate instilled with concomitant release of 40 micrograms of pilocarpine from an ocular system; and (e) therapy comprising 0.50 timolol maleate instilled with concomitant release of 40 mcg (micrograms) of pilocarpine from an ocular system. In the table, the results of (a) and (c) administered alone are additive, while the results are synergistic for (d) wherein the two drugs were administered concomitantly to the eye. In the table, the results of (b) and (c) administered alone are additive, where the results are synergistic for (e) wherein the two drugs were administered concomitantly to the eye.

The nature of data set [2]: Osmotic pressure of the solute. The format is physicochemical. From the text: The osmotic pressure, ATM, of the above solutes can be measured in a commercially available osmometer that measures the vapor pressure difference between pure water and the solution containing a solute to be analyzed, and according to standard thermodynamic principles, the vapor pressure ratio is converted into osmotic pressure difference. An osmometer that can be used for the present measurements is identified as Model 302B Vapor Pressure Osmometer, manufactured by Hewlett Packard Company, Avondale, Pa.

Data set [3] in a line: Solubility in distilled water. Format: physicochemical.

The values that follow come from patent US4281654A, “Drug delivery system for controlled ocular therapy” (ALZA Corporation, priority 1980, dated 1981).

In brackets after ≈: the same amount, converted by molar mass. Where a name gives a salt, the structure may show the parent alone.

As to `CC(C)(C)NC[C@H](O)COc1nsnc1N1CCOCC1` [timolol, S-(-)-1-(tert-butylamino)-3-[(4-morpholino-1,2,5-thiadiazol-3-yl)oxy-2-propanol maleate], the “Mean IOP Reduction” value was determined as 1.4 mm in data set [1] ((a) timolol maleate 0.25% ophthalmic solution instilled as drop alone) and 2.4 mm in data set [1] ((b) timolol maleate 0.50% ophthalmic solution instilled as drop alone).
Take `CC[C@@H]1C(=O)OC[C@@H]1Cc1cncn1C` (relative stereo) [pilocarpine, (3s-cis)-3-ethyldihydro-4-[(1-methyl-1H-imidazol-5-yl)methyl]-2(3H)-furanone]: in data set [1] ((c) pilocarpine 40 mcg/hr alone from ocular therapeutic system in conjunctival sac), the “Mean IOP Reduction” value came to 1.6 mm.
The solubility is the concentration that dissolves in the medium under given conditions. A higher solubility goes with a readily soluble substance. `CC[C@@H]1C(=O)OC[C@@H]1Cc1cncn1C` [(3S-cis)-ethyldihydro-4-[(1-methyl-1H-imidazol-5-yl)methyl]-2(3H)-furanonenitrate] came in with an osmotic pressure in data set [2] of 37 atm. The compound also showed a solubility in data set [3] (water) of 270 mg/mL (≈ 1300 mM).
For `COCCc1ccc(OCC(O)CNC(C)C)cc1` (racemic) [(±)-1-[4-(2-methoxyethyl)-phenoxy]-3-[(1-methylethyl)amino]-2-propanol tratrate], in data set [2], the osmotic pressure is recorded as 210 atm. The compound also returned a solubility in data set [3] (25° C) of 860 mg/mL (≈ 3220 mM).
